Results from US8809344B2, “Compounds, compositions, and methods for control of hepatitis C viral infections” (priority 2008, dated 2014).

Tests used:
[1] = test system: stable genotype 1b (Con1 strain) subgenomic replicon in control Clone A cells; test: Control Clone A cells, HCV RNA by quantitative RT-PCR; format: cell-based; details: Hepatitis C virus, 72 h
Protocol: In an effort to gain insight into the target of 80978, Clone A cells were selected for resistance to 80978. Clone A cells are a human hepatoma cell line that contains a stable genotype 1b (Con1 strain) subgenomic replicon. Cells were cultured for 12 days in medium containing 10 μM 80978 and 1 mg/ml Geneticin™ (Invitrogen). Medium was changed every 3-4 days to replenish compound, and cells were split as needed to maintain subconfluent cultures. After 12 days of growth in the presence of 10 μM 80978, the concentration of 80978 was increased to 20 μM and cultured for an additional 19 days. Control Clone A cells were grown in parallel in the presence of diluent only. After this culture period, cells were evaluated for response to 80978.
Control cells and cells that had been cultured in the presence of 80978 were treated in triplicate with 3-fold serial dilutions of compound for 72 hours. At the end of this incubation period, total RNA was extracted, and HCV RNA levels were measured by quantitative RT-PCR using primers that recognize the 3′NTR.

[2] = test system: stable genotype 1b (Con1 strain) subgenomic replicon; test: Log10 decrease in HCV replicon RNA in Clone VI cells, quantitative RT-PCR relative to GAPDH; format: cell-based, hepatitis C virus; details: 20 μM compound, 72 hours
Protocol: To quantify the effect of compound on HCV RNA replicon levels by measuring HCV replicon RNA levels, the Clone VI cell line, a human hepatoma cell line that contains a stable genotype 1b (Con1 strain) subgenomic replicon with the adaptive Ser1179Ile mutation was used (U.S. Pat. No. 7,049,428). Cells were seeded into 12-well plates (40,000 cells per well) in the absence of Geneticin™ (Invitrogen, Carlsbad, Calif., USA) and treated in triplicate four hours later with 20 μM compound, with a final DMSO percentage of 1% in a total volume of 1 ml. Total RNA was extracted 72 hours later, and HCV and GAPDH RNA levels were quantified via quantitative RT-PCR. The log 10 decrease in HCV RNA levels was quantified relative to GAPDH RNA levels using the comparative Ct (threshold cycle) method (Applied Biosystems, Foster City, Calif., USA).
Additional compounds of formula (I) shown in FIG. 1 were also shown to inhibit HCV RNA replication. The effects of various compounds of formula (I) on HCV RNA replicon levels were determined by measuring HCV replicon RNA levels in cells treated with various concentrations of the compounds. […] Total RNA was extracted 72 hours later, and HCV and GAPDH RNA levels were quantified via quantitative RT-PCR. […]

[3] = test system: genotype 1b (Con1 strain) replicon with silent mutation at amino acid 1771; test: Silent-mutation reporter replicon IVT RNA in Huh7.5 cells; format: cell-based; details: Hepatitis C virus
Source text: (§1) To identify nucleotide changes that confer resistance to 80978, replicon RNA was reverse transcribed and amplified from total RNA extracted from 80978-resistant and control Clone A cells. […] One silent mutation at amino acid 1771 was also observed. Each mutation was introduced independently into a stable genotype 1b (Con1 strain) subgenomic reporter replicon plasmid via site-directed mutagenesis. […] The sequence of the wild type NS4B encoding sequence is provided as SEQ ID NO:1, the sequence of the mutated NS4B nucleotide sequence encoding the F1809V mutation is provided as SEQ ID NO:3, and the sequence of the mutated NS4B nucleotide sequence encoding the F1809L mutation is provided as SEQ ID NO:5. The sequence of the wild type NS4B protein is provided as SEQ ID NO:2, the sequence of the mutated NS4B protein with the F1809V mutation is provided as SEQ ID NO:4, and the sequence of the mutated NS4B nucleotide sequence encoding the F1809L mutation is provided as SEQ ID NO:6. […] A differential response was observed between cells electroporated with different replicon RNAs.

[4] = test system: genotype 1a replicon H/FL-Neo(L+I) (H77 strain); test: Genotype 1a replicon in Huh7.5 cells, HCV RNA by blot hybridization; format: cell-based; details: Hepatitis C virus, Huh7.5, 72 h
[5] = test system: genotype 1b (Con1 strain) replicon with NS4B F1809L mutation; test: F1809L mutant reporter replicon IVT RNA in Huh7.5 cells; format: cell-based; details: Hepatitis C virus
Source text: as §1

## O=C(NCc1cccs1)c1nn2c(c1Cl)N[C@H](c1ccco1)C[C@@H]2C(F)(F)F (single isomer, unassigned) [Compound 80978]
[1]
  EC50: 1760 nM
[2]
  Log RNA decrease at [μM]: 1.16 @ 20 μM
[3]
  EC50: 240 nM
[4]
  EC50: 7800 nM
[5]
  EC50: > 22500 nM
